The values below come from article PMC5794004 (Bioorganic & medicinal chemistry, 2017).

The target in one experiment is hCB2 receptors (Homo sapiens, UniProt P34972). Description: CB2 receptor radioligand binding, [3H]CP55,940, CHO-K1 hCB2 membranes. To be noted: for interaction with CB2R: up to 100 μM.
Another experiment has as its target hCB1R (Homo sapiens, UniProt P21554). Description: CB1 receptor radioligand binding, [3H]CP55,940, CHO-K1 hCB1R membranes. The note with it: for increase of [3H]CP55,940 binding at CB1R: maximal increase over vehicle.
The target of the next experiment is T1, MAGL (Homo sapiens, UniProt Q99685).
T1 sequence (Q99685 1-303): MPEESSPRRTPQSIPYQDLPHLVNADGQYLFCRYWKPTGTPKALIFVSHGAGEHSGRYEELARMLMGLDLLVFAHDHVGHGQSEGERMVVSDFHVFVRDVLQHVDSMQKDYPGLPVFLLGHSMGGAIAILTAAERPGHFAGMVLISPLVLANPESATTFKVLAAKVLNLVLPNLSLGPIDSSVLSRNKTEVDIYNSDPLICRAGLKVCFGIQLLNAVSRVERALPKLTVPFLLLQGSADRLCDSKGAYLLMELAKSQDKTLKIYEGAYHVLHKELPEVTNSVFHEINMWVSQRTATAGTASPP
Description: MAGL activity assay, U937 cell homogenate. In kind it is biochemical.

For the next experiment, the system named is AEA uptake. Nature of the experiment: AEA uptake assay, intact U937 cells. Format: cell-based.
The conditions of experiment [1]: acute feeding model; cited from earlier work.

pKi: −log10 of the molar value.

Chain of hCB1R (P21554 whole entry): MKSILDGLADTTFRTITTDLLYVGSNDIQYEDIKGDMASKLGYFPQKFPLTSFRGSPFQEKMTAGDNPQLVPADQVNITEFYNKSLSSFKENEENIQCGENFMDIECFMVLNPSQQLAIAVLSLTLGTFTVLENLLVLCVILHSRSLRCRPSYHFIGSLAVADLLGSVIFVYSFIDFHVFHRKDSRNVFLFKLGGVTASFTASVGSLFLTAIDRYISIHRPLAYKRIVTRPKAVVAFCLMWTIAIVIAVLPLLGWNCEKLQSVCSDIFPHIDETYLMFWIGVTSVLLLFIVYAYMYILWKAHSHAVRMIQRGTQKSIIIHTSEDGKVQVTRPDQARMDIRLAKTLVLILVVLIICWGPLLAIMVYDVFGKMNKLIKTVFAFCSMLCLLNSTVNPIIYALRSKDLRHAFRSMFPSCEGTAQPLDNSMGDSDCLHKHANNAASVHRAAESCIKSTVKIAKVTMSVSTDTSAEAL
Chain of hCB2 receptors (P34972 whole entry): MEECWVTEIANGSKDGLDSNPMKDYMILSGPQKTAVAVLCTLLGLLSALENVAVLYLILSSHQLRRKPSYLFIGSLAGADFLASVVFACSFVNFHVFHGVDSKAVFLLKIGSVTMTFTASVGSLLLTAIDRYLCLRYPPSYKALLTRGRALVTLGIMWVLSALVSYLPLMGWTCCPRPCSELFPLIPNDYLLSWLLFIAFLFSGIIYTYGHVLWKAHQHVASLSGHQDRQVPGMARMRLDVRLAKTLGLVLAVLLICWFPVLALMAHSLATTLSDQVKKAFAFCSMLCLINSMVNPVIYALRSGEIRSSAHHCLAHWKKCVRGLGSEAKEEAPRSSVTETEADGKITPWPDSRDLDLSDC

For `O=C(Nc1ccc(Cl)cc1)Nc1cccc(Nc2cccc(N3CCCC3)c2)c1` [FG45a, 1-(4-Chlorophenyl)-3-(3-{[3-(pyrrolidin-1-yl)phenyl]amino}phenyl)urea], the “interaction with CB2R” value at hCB2 receptors was “did not significantly interact”.
As to `O=C(Nc1ccc(Cl)cc1)Nc1cccc(-c2cccc(N3CCCC3)n2)c1` [PSNCBAM-1, 1-(4-Chlorophenyl)-3-{3-[6-(pyrrolidin-1-yl)pyridin-2-yl]phenyl}urea], the “increase of [3H]CP55,940 binding at CB1R” value on hCB1R is on record as 15–20%. At MAGL, the “MAGL result in words” value is “negative”. Moreover, in the experiment on AEA uptake, the “AEA cell uptake result in words” value was “negative”. Further, the “binding to CB2R” value on hCB2 receptors (up to 10 μM) is recorded as “did not show any significant binding”. Also, the “food intake and body weight” value in experiment [1] was “decrease food intake and body weight”.
In the case of `O=C(Nc1ccc(Cl)cc1)Nc1cccc(-c2cccc(N3CCCC3)c2)c1` [SC4a, 1-(4-Chlorophenyl)-3-[3′-(pyrrolidin-1-yl)biphenyl-3-yl]urea], the “increase of [3H]CP55,940 binding at CB1R” value at hCB1R is reported as 15–20%.
As for `O=C(Cc1ccc(Cl)cc1)Nc1cccc(-c2cccc(N3CCCC3)c2)c1` [SC33, 2-(4-Chlorophenyl)-N-[3′-(pyrrolidin-1-yl)biphenyl-3-yl]acetamide], the “binding to CB1R” value at hCB1R (at 100 μM) is recorded as “approx. 10%”. Moreover, the “influence on [3H]CP55,940 binding to CB1R” value at hCB1R (up to 10 μM) is recorded as “does not influence”. This compound also gave a pKi at hCB2 receptors of approximately 4.30.
Regarding `O=C(Nc1ccc(Cl)cc1)Nc1cccc(Nc2cccc(N3CCCC3)n2)c1` [SN15b], the “interaction with CB2R” value on hCB2 receptors is reported as “did not significantly interact”.

What is called pKi is the Ki on a negative log10 scale, so that one unit is a factor of ten. High values mean a low Ki, low ones a high Ki.
